Data reported in PubChem BioAssay (NCI).
“And” between values parts separate entries of the source, which are not always exact repeats. Identical values can stand only once.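 Dose response: 5 concentrations. Exposure: 48 h. Format: 96-well plates. Endpoint: linear interpolation; highest concentration if not reached. GI50 is the concentration that inhibits growth by half. Definition used: TGI = concentration required for complete inhibition of growth.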

test system: HCT-15 colon; experiment: inhibition of tumour cell growth, NCI panel, 48 h

| Compound | GI50 [µM] | TGI |
| --- | --- | --- |
| COc1cc2c(c(OC)c1O)C(=O)C(OC)C(c1ccc(O)c(O)c1)O2 (stereo unspecified) | 0.0776 | > 100 µM |
| Cn1ccnc1C(=O)/C=C/c1ccc(CC(=O)Nc2ccc(Br)cc2)cc1 | 2.5 | > 16.7 µM |
| CCOC(=O)Nc1nc2ccc(OCC)cc2s1 | 5.12 | > 100 µM |
| NS(=O)(=O)c1ccccc1C(=O)N/N=C(\c1nc2ccc([N+](=O)[O-])cc2[nH]c1=O)C(O)c1ccc([N+](=O)[O-])cc1 (stereo unspecified) |  | > 100 µM |
| COc1ccc2c(c1)C(=O)/C(=C/c1ccc(OCC(=O)Nc3nccs3)cc1)O2 | 4.51 | 17.8 µM |
| CC(C)c1ccc(C(C)C(=O)N(CC2=C(C(C)c3ccccn3)c3ccccc3C2)C(C)C)cc1 (stereo unspecified) | 2.84 | 18 µM |
| Cc1nc2c(nc1C)C(=O)c1ccccc1C2=O |  | 8.3 µM |
| Nc1ccc(C(=O)N/C(=C\c2ccc3c(c2)OCO3)c2nc3[nH]c(=S)[nH]c(=O)c3[nH]2)cc1 |  | > 100 µM |
| O[C@H]1[C@H]2c3cc4c(cc3CN3CCC(=C[C@@H]1O)[C@H]23)OCO4 |  | 5.32 µM |
| O=C(Nc1ccc(I)cc1)c1cc([N+](=O)[O-])ccc1O | 5.77 | 38.9 µM |
| Cc1cc(=O)n2[nH]c(-c3ccc(C(C)(C)C)cc3)cc2n1 | 5.79 | > 100 µM |
| CNC(=O)c1ccccc1Nc1nc(Nc2ccc(N3CCOCC3)cc2OC)ncc1Cl | 0.542 | > 40.8 µM |
| O=C(N/C(=C\c1cc(Cl)ccc1Cl)c1nc2[nH]c(=S)[nH]c(=O)c2[nH]1)c1ccccc1 |  | > 51 µM |
| O=C(CN1CCN(c2cc3c(cc2F)c(=O)c(C(=O)N/N=C/c2ccccc2O)cn3C2CC2)CC1)N/N=C\c1ccccc1O | 0.33 | > 100 µM |
| C=C(CNCCO)[C@@H]1CC[C@]2(CO)CC[C@]3(C)[C@H](CC[C@@H]4[C@@]5(C)CCC(N)C(C)(C)[C@@H]5CC[C@]43C)[C@@H]12 (stereo partly specified) | 5.57 | 19 µM |
| Nc1cc2nc3ccccc3sc-2cc1=O | 1.44 | 11.1 µM |
| COc1cc2nc(-c3ccc(C(F)(F)F)cc3)cc(OCCCN3CCC(O)CC3)c2cc1OC | 0.667 | 13.8 µM |
| CC(=O)C(CN(C(C)C)C(C)C)C(c1ccccc1)c1c(O)c2ccccc2oc1=O (stereo unspecified) |  | > 100 µM |
| O=C1NNC(=O)c2ccccc2SSc2ccccc2C(=O)NNC(=O)c2ccccc2SSc2ccccc21 | 4.61 | 50 µM and 37.1 µM |
| NC(CCc1nc(-c2ccc(Cl)cc2)cs1)C(=O)O (stereo unspecified) |  | > 100 µM |
| COc1cc(C(=O)/C=C/c2sc(Cl)nc2Cl)cc(OC)c1OC | 1.53 | 3 µM |
| COc1cc2nc(C)nc(N[C@H](C)c3cc(N)cc(C(F)(F)F)c3)c2cc1O[C@H]1CCOC1 | 12.6 | 27.6 µM |
| CCOC(=O)C1=C(C)CC2C(=O)OC(=O)C2C1(C)C (stereo unspecified) |  | > 100 µM |
| O=C1c2ccccc2C(=O)c2sc(Nc3cccc(Cl)c3)nc21 |  | 3.69 µM |
| Fc1ccc(Nc2ncnc3ccc(-c4cnc5[nH]ccc5c4)cc23)cc1Cl | 3.24 | > 76.5 µM |
| CN(C)CCCNC1=C(Cl)C(=O)c2ccccc2C1=O | 1.76 | 4.09 µM |
| O=C(Nc1ccc(F)cc1F)c1cc(I)ccc1O | 3.27 | 45.5 µM |
| CCOc1ccccc1-n1c(CN2CCN(C(=O)COc3ccc(CNCCCCCCN4C5CCCC4CC(OC(=O)Nc4cc(C)ccc4OC)C5)cc3)CC2)nc2ccccc2c1=O (stereo unspecified) | 2.23 | 5.4 µM |

test system: MOLT-4 leukemia; experiment: inhibition of tumour cell growth, NCI panel, 48 h

| Compound | GI50 [µM] | TGI |
| --- | --- | --- |
| COc1cc2c(c(OC)c1O)C(=O)C(OC)C(c1ccc(O)c(O)c1)O2 (stereo unspecified) | 0.482 | > 100 µM |
| Cn1ccnc1C(=O)/C=C/c1ccc(CC(=O)Nc2ccc(Br)cc2)cc1 | 3.69 | 14.8 µM |
| CCOC(=O)Nc1nc2ccc(OCC)cc2s1 | 59.4 | > 100 µM |
| NS(=O)(=O)c1ccccc1C(=O)N/N=C(\c1nc2ccc([N+](=O)[O-])cc2[nH]c1=O)C(O)c1ccc([N+](=O)[O-])cc1 (stereo unspecified) |  | > 100 µM |
| COc1ccc2c(c1)C(=O)/C(=C/c1ccc(OCC(=O)Nc3nccs3)cc1)O2 | 2.09 | > 100 µM |
| CC(C)c1ccc(C(C)C(=O)N(CC2=C(C(C)c3ccccn3)c3ccccc3C2)C(C)C)cc1 (stereo unspecified) | 2.46 | 13.1 µM |
| Cc1nc2c(nc1C)C(=O)c1ccccc1C2=O |  | 48 µM |
| Nc1ccc(C(=O)N/C(=C\c2ccc3c(c2)OCO3)c2nc3[nH]c(=S)[nH]c(=O)c3[nH]2)cc1 |  | > 100 µM |
| O[C@H]1[C@H]2c3cc4c(cc3CN3CCC(=C[C@@H]1O)[C@H]23)OCO4 |  | 4.65 µM |
| O=C(Nc1ccc(I)cc1)c1cc([N+](=O)[O-])ccc1O | 4.67 | 51.3 µM |
| Cc1cc(=O)n2[nH]c(-c3ccc(C(C)(C)C)cc3)cc2n1 | 6.56 | > 100 µM |
| CNC(=O)c1ccccc1Nc1nc(Nc2ccc(N3CCOCC3)cc2OC)ncc1Cl | 1.85 | > 63.7 µM |
| O=C(N/C(=C\c1cc(Cl)ccc1Cl)c1nc2[nH]c(=S)[nH]c(=O)c2[nH]1)c1ccccc1 |  | > 80.8 µM |
| O=C(CN1CCN(c2cc3c(cc2F)c(=O)c(C(=O)N/N=C/c2ccccc2O)cn3C2CC2)CC1)N/N=C\c1ccccc1O | 0.267 | > 100 µM |
| C=C(CNCCO)[C@@H]1CC[C@]2(CO)CC[C@]3(C)[C@H](CC[C@@H]4[C@@]5(C)CCC(N)C(C)(C)[C@@H]5CC[C@]43C)[C@@H]12 (stereo partly specified) | 1.99 | 5.84 µM |
| Nc1cc2nc3ccccc3sc-2cc1=O | 4.26 | > 100 µM |
| COc1cc2nc(-c3ccc(C(F)(F)F)cc3)cc(OCCCN3CCC(O)CC3)c2cc1OC | 3.27 | 18.4 µM |
| CC(=O)C(CN(C(C)C)C(C)C)C(c1ccccc1)c1c(O)c2ccccc2oc1=O (stereo unspecified) |  | > 100 µM |
| O=C1NNC(=O)c2ccccc2SSc2ccccc2C(=O)NNC(=O)c2ccccc2SSc2ccccc21 |  | 50 µM and 17.3 µM |
| NC(CCc1nc(-c2ccc(Cl)cc2)cs1)C(=O)O (stereo unspecified) |  | > 100 µM |
| COc1cc(C(=O)/C=C/c2sc(Cl)nc2Cl)cc(OC)c1OC | 2.21 | 5.49 µM |
| COc1cc2nc(C)nc(N[C@H](C)c3cc(N)cc(C(F)(F)F)c3)c2cc1O[C@H]1CCOC1 | 12.3 | 41.5 µM |
| CCOC(=O)C1=C(C)CC2C(=O)OC(=O)C2C1(C)C (stereo unspecified) |  | > 100 µM |
| O=C1c2ccccc2C(=O)c2sc(Nc3cccc(Cl)c3)nc21 |  | 3.05 µM |
| Fc1ccc(Nc2ncnc3ccc(-c4cnc5[nH]ccc5c4)cc23)cc1Cl | > 20.8 | > 100 µM |
| CN(C)CCCNC1=C(Cl)C(=O)c2ccccc2C1=O | 3.02 | 8.27 µM |
| O=C(Nc1ccc(F)cc1F)c1cc(I)ccc1O | 3.15 | 16.3 µM |
| CCOc1ccccc1-n1c(CN2CCN(C(=O)COc3ccc(CNCCCCCCN4C5CCCC4CC(OC(=O)Nc4cc(C)ccc4OC)C5)cc3)CC2)nc2ccccc2c1=O (stereo unspecified) | 0.68 | 1.5 µM |

test system: NCI-H23 lung; experiment: inhibition of tumour cell growth, NCI panel, 48 h

| Compound | GI50 [µM] | TGI [µM] |
| --- | --- | --- |
| COc1cc2c(c(OC)c1O)C(=O)C(OC)C(c1ccc(O)c(O)c1)O2 (stereo unspecified) | 0.385 | > 100 |
| Cn1ccnc1C(=O)/C=C/c1ccc(CC(=O)Nc2ccc(Br)cc2)cc1 | 2.75 | 7.1 |
| CCOC(=O)Nc1nc2ccc(OCC)cc2s1 | > 100 | > 100 |
| NS(=O)(=O)c1ccccc1C(=O)N/N=C(\c1nc2ccc([N+](=O)[O-])cc2[nH]c1=O)C(O)c1ccc([N+](=O)[O-])cc1 (stereo unspecified) |  | > 100 |
| COc1ccc2c(c1)C(=O)/C(=C/c1ccc(OCC(=O)Nc3nccs3)cc1)O2 | 0.711 | 19.9 |
| CC(C)c1ccc(C(C)C(=O)N(CC2=C(C(C)c3ccccn3)c3ccccc3C2)C(C)C)cc1 (stereo unspecified) | 3.35 | 53.6 |
| Cc1nc2c(nc1C)C(=O)c1ccccc1C2=O |  | 2.59 |
| Nc1ccc(C(=O)N/C(=C\c2ccc3c(c2)OCO3)c2nc3[nH]c(=S)[nH]c(=O)c3[nH]2)cc1 |  | > 100 |
| O[C@H]1[C@H]2c3cc4c(cc3CN3CCC(=C[C@@H]1O)[C@H]23)OCO4 |  | 13.7 |
| O=C(Nc1ccc(I)cc1)c1cc([N+](=O)[O-])ccc1O | 4.07 | > 100 |
| Cc1cc(=O)n2[nH]c(-c3ccc(C(C)(C)C)cc3)cc2n1 | 4.03 | 80.6 |
| CNC(=O)c1ccccc1Nc1nc(Nc2ccc(N3CCOCC3)cc2OC)ncc1Cl | 0.571 | > 43.8 |
| O=C(N/C(=C\c1cc(Cl)ccc1Cl)c1nc2[nH]c(=S)[nH]c(=O)c2[nH]1)c1ccccc1 |  | > 65.8 |
| O=C(CN1CCN(c2cc3c(cc2F)c(=O)c(C(=O)N/N=C/c2ccccc2O)cn3C2CC2)CC1)N/N=C\c1ccccc1O | 0.801 | > 100 |
